Laboratory results from DBAASP.
Values after ≈ are worked out from the molar mass of the structure shown. Each block holds one compound with its values, some of them ahead of it.

Tests used:
Experiment in all cases: ≥ marks a high value that may be exact or a test limit, other limits are often not marked, values filed in µg/mL are converted to µM
[1] = system: Enterococcus faecium 1299
Escherichia coli 1342 = system: Escherichia coli 1342
Candida glabrata 0902 = system: Candida glabrata 0902
[2] = system: Nocardia asteroides 090312
[3] = system: Stenotrophomonas maltophilia 090223
Acinetobacter baumannii = system: Acinetobacter baumannii
[4] = system: Staphylococcus aureus 1349
Proteus mirabilis 090223 = system: Proteus mirabilis 090223
Aeromonas sobria 090223 = system: Aeromonas sobria 090223
Klebsiella pneumoniae = system: Klebsiella pneumoniae
[5] = system: Escherichia coli ATCC 25922
[6] = system: Candida albicans ATCC 2002
[7] = system: Staphylococcus aureus 090223
[8] = system: Staphylococcus aureus ATCC 2592
[9] = system: Bordetella bronchiseptica CUN 11844-99
[10] = system: Staphylococcus aureus CUN 3792-99
[11] = system: Pseudomonas aeruginosa ATCC 27853
[12] = system: Acinetobacter baumannii ATCC 19606
[13] = system: Pseudomonas aeruginosa CUN 4158-02
[14] = system: Stenotrophomonas maltophilia CUN 3998-00
[15] = system: Staphylococcus aureus ATCC 25923
[16] = system: Staphylococcus aureus ATCC 43300
[17] = system: Staphylococcus epidermidis
Escherichia coli D31 = system: Escherichia coli D31
Bacillus megaterium = system: Bacillus megaterium
Staphylococcus aureus = system: Staphylococcus aureus
Haemophilus Influenzae = system: Haemophilus Influenzae
Enterobacter cloacae = system: Enterobacter cloacae
[18] = system: Dermacoccus nishinomiyaensis
[19] = system: Staphylococcus haemolyticus
Alcaligenes faecalis = system: Alcaligenes faecalis
[20] = system: Staphylococcus saprophyticus
Vibrio alginolyticus = system: Vibrio alginolyticus
[21] = system: Micrococcus luteus IFO 12708
Salmonella typhimurium = system: Salmonella typhimurium
Aeromonas hydrophila = system: Aeromonas hydrophila
Klebsiella aerogenes = system: Klebsiella aerogenes
Pseudomonas aeruginosa = system: Pseudomonas aeruginosa
[22] = system: Citrobacter freundii ATCC 8090
[23] = system: Pseudomonas aeruginosa ATCC 9027
[24] = system: Escherichia coli ATCC 28922
Xanthomonas citri = system: Xanthomonas citri
Methylobacterium sp. = system: Methylobacterium sp.
[25] = system: Agrobacterium tumefaciens GV3101

MIC [22]: ≥ 75 µM
MIC [23]: 8 µM (≈ 14.1 µg/mL)
MIC [24]: ≥ 50 µM
Structure (SMILES): CC(C)C[C@H](NC(=O)[C@H](CC(C)C)NC(=O)CNC(=O)CNC(=O)CNC(=O)CNC(=O)CNC(=O)CNC(=O)CNC(=O)CNC(=O)CNC(=O)[C@H](CC(C)C)NC(=O)[C@H](CC(C)C)NC(=O)[C@@H]1CCCN1C(=O)CNC(=O)[C@H](CC(C)C)NC(=O)[C@H](CC(C)C)NC(=O)CNC(=O)CNC(=O)[C@H](CC(C)C)NC(=O)[C@H](CC(C)C)NC(=O)CN)C(=O)O [GLLGGLLGPLLGGGGGGGGGLL]

MIC (Xanthomonas citri): 4 µM (≈ 7.46 µg/mL)
MIC (Methylobacterium sp.): 9 µM (≈ 16.8 µg/mL)
MIC [25]: 17 µM (≈ 31.7 µg/mL)
Structure (SMILES): CC[C@H](C)[C@H](N)C(=O)N[C@@H](Cc1ccccc1)C(=O)NCC(=O)N[C@@H](C)C(=O)N[C@H](C(=O)N[C@@H](CC(C)C)C(=O)N1CCC[C@H]1C(=O)N[C@@H](CC(C)C)C(=O)N[C@@H](C)C(=O)N[C@@H](CC(C)C)C(=O)NCC(=O)N[C@@H](C)C(=O)N[C@@H](CC(C)C)C(=O)N[C@@H](CCCCN)C(=O)N[C@@H](CC(N)=O)C(=O)N[C@@H](CC(C)C)C(=O)N[C@H](C(=O)N[C@@H](CCCCN)C(=O)O)[C@@H](C)CC)[C@@H](C)CC [IFGAILPLALGALKNLIK]

The remaining lines, values behind:

Structure (SMILES): CC[C@H](C)[C@@H]1NC(=O)[C@H](CC(C)C)NC(=O)[C@@H](NC(=O)[C@H](Cc2ccccc2)NC(=O)[C@H](CC(C)C)NC(=O)[C@H](CO)NC(=O)[C@@H]2CCCN2C(=O)[C@H](CC(C)C)NC(=O)[C@H](CCCN=C(N)N)NC(=O)[C@H](CCCCN)NC(=O)[C@@H](NC(=O)[C@@H](NC(=O)[C@H](C)NC(=O)CNC(=O)[C@H](CC(C)C)NC(=O)[C@H](C)NC(=O)[C@@H](N)Cc2ccccc2)C(C)C)[C@@H](C)O)CSSC[C@@H](C(=O)O)NC(=O)[C@H](CCCCN)NC(=O)[C@H](CCCN=C(N)N)NC(=O)[C@H]([C@@H](C)O)NC1=O [FALGAVTKRLPSLFCLITRKC]
MIC [1]: 2.01 µM (≈ 4.7 µg/mL)
MIC (Escherichia coli 1342): 2.01 µM (≈ 4.7 µg/mL)
MIC (Candida glabrata 0902): 16 µM (≈ 37.5 µg/mL)
MIC [2]: 8.04 µM (≈ 18.8 µg/mL)
MIC [3]: 2.01 µM (≈ 4.7 µg/mL)
MIC (Acinetobacter baumannii): 5.69 µM (≈ 13.3 µg/mL)
MIC [4]: 8.04 µM (≈ 18.8 µg/mL)
MIC (Proteus mirabilis 090223): 4.02 µM (≈ 9.39 µg/mL)
MIC (Aeromonas sobria 090223): 4.02 µM (≈ 9.39 µg/mL)
MIC (Klebsiella pneumoniae): > 42.8 µM
MIC [5]: 8.04 µM (≈ 18.8 µg/mL)
MIC [6]: 0.984 µM (≈ 2.3 µg/mL)
MIC [7]: 0.984 µM (≈ 2.3 µg/mL)
MIC [8]: 8.04 µM (≈ 18.8 µg/mL)

Structure (SMILES): NCCCC[C@H](NC(=O)CNC(=O)[C@H](CCCN=C(N)N)NC(=O)[C@H](Cc1ccc(O)cc1)NC(=O)[C@H](CCCN=C(N)N)NC(=O)[C@H](Cc1c[nH]c2ccccc12)NC(=O)[C@H](CCCN=C(N)N)NC(=O)[C@H](Cc1ccccc1)NC(=O)[C@H](CCCCN)NC(=O)[C@H](CCCCN)NC(=O)[C@H](Cc1c[nH]c2ccccc12)NC(=O)[C@H](CCCN=C(N)N)NC(=O)[C@H](CCCN=C(N)N)NC(=O)[C@H](CS)NC(=O)CN)C(=O)N[C@@H](Cc1ccccc1)C(=O)N[C@@H](Cc1c[nH]c2ccccc12)C(=O)N[C@@H](Cc1ccccc1)C(=O)N[C@@H](Cc1c[nH]c2ccccc12)C(=O)N[C@@H](CS)C(=O)NCC(N)=O [GCRRWKKFRWRYRGKFWFWCG]
MIC [9]: 11 µM (≈ 32 µg/mL)
MIC [10]: 22 µM (≈ 64 µg/mL)
MIC [11]: 44 µM (≈ 128 µg/mL)
MIC [12]: 22 µM (≈ 64 µg/mL)
MIC [13]: ≥ 44 µM
MIC [14]: 22 µM (≈ 64 µg/mL)
MIC [15]: 22 µM (≈ 64 µg/mL)
MIC [5]: 44 µM (≈ 128 µg/mL)
MIC [16]: 11 µM (≈ 32 µg/mL)

Structure (SMILES): CC(C)C[C@H](NC(=O)[C@H](Cc1c[nH]c2ccccc12)NC(=O)[C@H](C)NC(=O)CNC(=O)[C@@H](N)CC(C)C)C(=O)N[C@@H](C)C(=O)NCC(=O)N[C@@H](CCCCN)C(=O)N[C@H](C(=O)N[C@@H](C)C(=O)NCC(=O)N[C@H](C(=O)N[C@H](C(=O)N[C@@H](C)C(=O)N[C@H](C(=O)N[C@@H](Cc1ccc(O)cc1)C(=O)N[C@@H](C)C(=O)N[C@@H](Cc1c[nH]c2ccccc12)C(=O)N[C@@H](CC(N)=O)C(=O)N[C@@H](CCCN=C(N)N)C(=O)N[C@@H](Cc1ccc(O)cc1)C(=O)N[C@H](C(N)=O)C(C)C)[C@@H](C)O)C(C)C)[C@@H](C)O)C(C)C [LGAWLAGKVAGTVATYAWNRYV]
MIC [17]: 4.24 µM (≈ 10 µg/mL)
MIC (Escherichia coli D31): 25 µM (≈ 59.2 µg/mL)
MIC (Bacillus megaterium): 25 µM (≈ 59.2 µg/mL)
MIC (Staphylococcus aureus): 4.24 µM (≈ 10 µg/mL)
MIC (Haemophilus Influenzae): 25 µM (≈ 59.2 µg/mL)
MIC (Enterobacter cloacae): 25 µM (≈ 59.2 µg/mL)
MIC [18]: 0.566 µM (≈ 1.34 µg/mL)
MIC [19]: 4.24 µM (≈ 10 µg/mL)
MIC (Acinetobacter baumannii): 25 µM (≈ 59.2 µg/mL)
MIC (Alcaligenes faecalis): 25 µM (≈ 59.2 µg/mL)
MIC [20]: 4.24 µM (≈ 10 µg/mL)
MIC (Vibrio alginolyticus): 1.13 µM (≈ 2.68 µg/mL)
MIC [21]: 0.566 µM (≈ 1.34 µg/mL)
MIC (Salmonella typhimurium): 25 µM (≈ 59.2 µg/mL)
MIC (Aeromonas hydrophila): 25 µM (≈ 59.2 µg/mL)
MIC (Klebsiella aerogenes): 25 µM (≈ 59.2 µg/mL)
MIC (Pseudomonas aeruginosa): > 25 µM
